Test results published in patent US7829114B2, “Capsules containing aqueous fill compositions stabilized with derivatized cyclodextrin” (CyDex Pharmaceuticals, Inc., priority 2002, dated 2010).
Read-outs that look alike come from different tables or passages of the source.

Key:
[1] = Hard shell capsule stability in aqueous SBE-CD solutions; assay type: physicochemical; conditions: for failure time: vcap, monitoring discontinued after fourteen days; for content in fill composition for an HSIT rating of at least 3: SAE-CD, PVP and water fill, CAPSUGEL HPMC hard shell capsule
Experimental: Two types of hard shell capsules obtained from […] were evaluated. A conventional hard gelatin capsule (HCAP) and a hard HPMC (hydroxypropyl methylcellulose) capsule (VCAP) were evaluated under identical conditions using aqueous solutions differing in the concentration of SBE-CD (sulfobutyl ether cyclodextrin).
In the absence of SBE or another shell-stabilizing material, these shell materials were unstable to erosion, dissolution, swelling and degradation by water. Under the conditions of the assay, SBE cyclodextrin was able to stabilize the VCAP shells for ≧14 days even at concentrations of ≧30% wt. of the fill composition. In this assay, monitoring was discontinued after fourteen days.

[2] = Shell stability on exposure to aqueous fill composition (half-shell integrity test, H.S.I.T.); assay type: physicochemical
Experimental: (§1) The same tests were performed on gelatin capsules obtained from CARDINAL HEALTH.
It has been discovered that PEG has a beneficial effect upon the shell-stabilizing property of an aqueous fill composition comprising SAE-CD. FIG. 6a depicts a ternary graph correlating the concentration of SAE-CD, water and PEG in a fill composition to the H.S.I.T. rating of a soft shell capsule exposed to the fill composition. Aqueous fill solutions comprising differing amounts of PEG, SAE-CD and water were prepared. The stability tests were conducted as described below. The HFC soft gelatin capsules described herein were used. For a composition comprising 40% wt. SBE-CD, 40% wt. water and 20% wt. PEG, the shell was stable for greater than 5 days. For a composition comprising 35% wt. SBE-CD, 35% wt. water and 30% wt. PEG, the shell was stable for greater than 5 days. For a composition comprising 18% wt. SBE-CD, 42% wt. water and 40% wt. PEG, the shell was stable for greater than 5 days. Under each of the conditions tested, the control sample excluded SAE-CD, i.e., containing only water and PEG at the indicated concentration, and failed within 24 hours. About the same results were obtained for the HFB (FIG. 6b), LFB (FIG. 7a) and LFC (FIG. 7b) soft gelatin capsules. Increasing the SAE-CD concentration to values higher than those indicated further increases the shelf-life of the shell or provides an HSIT rating of at least 4. Stabilized aqueous fill composition-containing capsule formulations can be achieved with each capsule if the following fill compositions are used.

[3] = as above; assay type: physicochemical; conditions: for content in fill composition for an HSIT rating of at least 3: PVP and water fill, lipophilic fill-grade CARDINAL SGC
Experimental: as §1

[4] = Hard shell capsule stability in aqueous SBE-CD solutions; assay type: physicochemical; conditions: SAE-CD, PVP and water fill; CAPSUGEL HGC
[5] = Shell stability on exposure to aqueous fill composition (half-shell integrity test, H.S.I.T.); assay type: physicochemical; conditions: SAE-CD, PVP and water fill; hydrophilic fill-grade CARDINAL SGC
[6] = as above; assay type: physicochemical; conditions: for content in fill composition for an HSIT rating of at least 3: PVP and water fill, hydrophilic fill-grade BANNER SGC
Description: Agitation continued until all the SAE-CD dissolved.

[7] = as above; conditions: for content in fill composition for an HSIT rating of at least 3: PVP and water fill, lipophilic fill-grade BANNER SGC
Experimental: A study was conducted to determine whether or not complexation of a drug to the SAE-CD alters the ability of the SAE-CD to stabilize the capsule shell against dissolution, erosion, swelling or degradation caused by water in the fill composition enclosed within the capsule shell. Banner's hydrophilic, HFB, and lipophilic, LFB, air fill size 35 oval gelatin capsules were used in this study, which was performed as described below. […] The SAE-CD was slowly added to the water while it was stirring and on a hot plate. Agitation continued until all the SAE-CD dissolved. The SAE-CD was divided by weighing in equal amounts into nine vials (one for each drug). […] The amount of drug added produced a composition that contained a normal dose of drug in 1 gram. The vials were agitated and heated until a solution was obtained or the active was uniformly suspended. […]
Method A: Half-Shell integrity Test (H.S.I.T.)
In a closed container, a portion of a capsule shell is exposed to an aqueous fill composition comprising a known amount of derivatized cyclodextrin, water and optionally one or more other excipients. Observation of changes, or lack thereof, on the exposed portion's size, appearance, shape, dissolution, erosion, degradation, hardness, and/or translucence are recorded periodically over time. A rating scale is used to quantify the overall performance of the capsule portion during the test.

[8] = 40% wt. cyclodextrin derivative in water, HFC
[9] = 50% wt. cyclodextrin derivative in water, HFC
[10] = 55% wt. cyclodextrin derivative in water, HFC
[11] = 60% wt. cyclodextrin derivative in water, HFC
[12] = 40% wt. cyclodextrin derivative in water, LFC
[13] = 50% wt. cyclodextrin derivative in water, LFC
[14] = 55% wt. cyclodextrin derivative in water, LFC
[15] = 60% wt. cyclodextrin derivative in water, LFC
[16] = 40% wt. cyclodextrin derivative in water, HFB
[17] = 50% wt. cyclodextrin derivative in water, HFB
[18] = 55% wt. cyclodextrin derivative in water, HFB
[19] = 60% wt. cyclodextrin derivative in water, HFB
[20] = 40% wt. cyclodextrin derivative in water, LFB
[21] = 50% wt. cyclodextrin derivative in water, LFB
[22] = 55% wt. cyclodextrin derivative in water, LFB
[23] = 60% wt. cyclodextrin derivative in water, LFB

In the case of sulfobutyl ether cyclodextrin [SAE-CD], the failure time ([1]; 30% SBE solution) is reported as >14 days, the failure time ([1]; 40% SBE solution) is reported as >14 days and the failure time ([1]; 50% SBE solution) is reported as >14 days. For the same compound, the failure time ([1]; 60% SBE solution) was >14 days, the “content in fill composition for an HSIT rating of at least 3” value (“content in fill composition … at least 3” for short) [1] was “≧6%” and the “time VCAP shells were stabilized” value ([1]; concentrations of ≧30% wt. of the fill composition) was ≥ 14 days. For the same compound, the “content in fill composition for a stabilized capsule formulation” value [2] was “≧18%”, the “time the shell was stable” value ([2]; 18% wt. SBE-CD, 42% wt. water and 40% wt. PEG, HFC) was “greater than 5 days” and the “time the shell was stable” value ([2]; 35% wt. SBE-CD, 35% wt. water and 30% wt. PEG, HFC) was “greater than 5 days”. For the same compound, the “time the shell was stable” value ([2]; 40% wt. SBE-CD, 40% wt. water and 20% wt. PEG, HFC) was “greater than 5 days”, the “Increase in shell size” value [2, 8] was 3 × original and the Observations [2, 8] was “deformed”. For the same compound, the Time for failure [2, 8] was 4 days, the “Increase in shell size” value [2, 9] was 2 × original and the Observations [2, 9] was “shape intact”. For the same compound, the Time for failure [2, 9] was 7 days, the “Increase in shell size” value [2, 10] was “No change” and the Observations [2, 10] was “No deformities”. The Time for failure [2, 10] was “≧14 days”, the “Increase in shell size” value [2, 11] was “no change” and the Observations [2, 11] was “no change”. For the same compound, the Time for failure [2, 11] was >21 days, the “content in fill composition for a stabilized capsule formulation” value [3] was “≧18%” and the “Increase in shell size” value [3, 12] was >3 × original. The Observations [3, 12] was “shape intact”, the Time for failure [3, 12] was 4 days and the “Increase in shell size” value [3, 13] was 2 × original. For the same compound, the Observations [3, 13] was “deformed”, the Time for failure [3, 13] was 7 days and the “Increase in shell size” value [3, 14] was “Slightly enlarged”. The Observations [3, 14] was “No deformities”, the Time for failure [3, 14] was “≧14 days” and the “Increase in shell size” value [3, 15] was “no change”. The Observations [3, 15] was “no change”, the Time for failure [3, 15] was >21 days and the “content in fill composition … at least 3” value ([3]; SAE-CD) was “≧6%”. The “content in fill composition … at least 3” value [4] was “≧24%”, the “content in fill composition … at least 3” value [5] was “≧6%” and the “content in fill composition for a stabilized capsule formulation” value [6] was “≧12%”. The “Increase in shell size” value [6, 16] was 2× × original, the Observations [6, 16] was “shape intact” and the Time for failure [6, 16] was 3 days. For the same compound, the “Increase in shell size” value [6, 17] was 2.5 × original, the Observations [6, 17] was “Slightly” and the Time for failure [6, 17] was 16 days. The “Increase in shell size” value [6, 18] was 2 × original, the Observations [6, 18] was “Deformed” and the Time for failure [6, 18] was 10 days. For the same compound, the “Increase in shell size” value [6, 19] was “no change”, the Observations [6, 19] was “No change” and the Time for failure [6, 19] was “≧21 days”. The “content in fill composition … at least 3” value ([6]; SAE-CD) was “≧6%”, the “content in fill composition for a stabilized capsule formulation” value [7] was “≧18%” and the “Increase in shell size” value [7, 20] was 2.5× × original. For the same compound, the Observations [7, 20] was “shape intact”, the Time for failure [7, 20] was 3 days and the “Increase in shell size” value [7, 21] was 2.5 × original. For the same compound, the Observations [7, 21] was “Deformed”, the Time for failure [7, 21] was 7 days and the “Increase in shell size” value [7, 22] was 2 × original. For the same compound, the Observations [7, 22] was “Deformed”, the Time for failure [7, 22] was 10 days and the “Increase in shell size” value [7, 23] was “no change in length”. The Observations [7, 23] was “Slight”, the Time for failure [7, 23] was “≧21 days” and the “content in fill composition … at least 3” value ([7]; SAE-CD) was “≧6%”.

With `O` [Water] the “content in fill composition … at least 3” value [1] was “≦70%”, the “content in fill composition for a stabilized capsule formulation” value ([2]; SAE-CD, PEG and water fill, HFC) was “≦50%” and the “content in fill composition for a stabilized capsule formulation” value ([3]; SAE-CD, PEG and water fill, LFC) was “≦48%”. The “content in fill composition … at least 3” value ([3]; SAE-CD) was “≦49%”, the “content in fill composition … at least 3” value [4] was “≦36%” and the “content in fill composition … at least 3” value [5] was “≦54%”. The “content in fill composition for a stabilized capsule formulation” value ([6]; SAE-CD, PEG and water fill, HFB) was “≦48%”, the “content in fill composition … at least 3” value ([6]; SAE-CD) was “≦54%” and the “content in fill composition for a stabilized capsule formulation” value ([7]; SAE-CD, PEG and water fill, LFB) was “≦50%”. The “content in fill composition … at least 3” value ([7]; SAE-CD) was “≦54%”.
